Assay results reported in US20260000713A1, “MICROBIAL M[…] INTESTINAL INFLAMMATION” (CEDARS-SINAI MEDICAL CENTER, priority 2021, published 2026).
Like-named read-outs stand apart in the source and are kept apart here.

Tests used:
Paneth cells = conditions: acetate treated GF WT or Tl1a-tg mice
Description: (§1) Acetate supplementation: Sodium acetate (Sigma Aldrich) was added at 200 mM to drinking water. SPF mice were supplemented with acetate water for 2 or 4 months starting at 2 months of age. GF mice were supplemented with acetate water for 3 months starting at 2-3 months of age.
(§2) The groups depicted include WT H2O, WT Ac (acetate), Tl1a-tg H2O, and Tl1a-tg Ac. Around 12-19 mice were used in each group. […] Around 6 mice were used per group.

[1] = system: Germ-free IBD susceptible mice; conditions: Germ-free Tl1a-Tg mice receiving acetate vs standard water
Description: as §1

[2] = system: GF WT mice or GF Tl1a-tg mice; conditions: 200 mM sodium acetate in drinking water for 3 months, vs regular drinking water
Description: (§3) Histology Scoring: Ileal tissues were collected 1-2 cm long near cecum, paraffin-embedded and stained with H&E for histological analysis. Severity of ileal inflammation was evaluated in a blinded manner according to previously described criteria by two trained animal pathologists. Spontaneous ileitis was evaluated by scoring the degree of inflammation, extent of involvement, crypt damage and villus changes as described. GF mice were evaluated using a scoring criterion.
The impact of acetate on the development of ileitis was examined.
as §1
12-week-old littermate GF WT mice or GF Tl1a-tg mice were treated with 200 mM of sodium acetate in drinking water (ad libitum) for 3 months. […] The number of mice used was 12 to 22 mice per group.

IFN-γ = conditions: MLN cells restimulated with anti-CD3ε and anti-CD28 for 3 days
Description: as §1
Isolation of mesenteric lymph nodes mononuclear cells, restimulation, and ELISA: Mesenteric lymph nodes (MLN) were removed from the peritoneal cavity and mesenteric fat was removed. Single cell suspension was prepared by crushing MLN between two glass slides and passing the cell suspension through a 40 μm cell strainer. Single-cell suspensions were restimulated with anti-CD3ε (0.5 μg/ml) and anti-CD28 (1 μg/ml) antibodies for 3 days. Cytokine levels in supernatants were measured by ELISA. Cytokine concentration in culture supernatants was assayed by ELISA for murine IFN-γ (eBioscience).
as §2

[3] = system: SPF WT mice or tl1a-tg mice
Description: as §3, §1
In a second set of experiments, SPF WT mice or tl1a-tg mice were treated with acetate in drinking water for 2 or 4 months starting at 2 months of age. […] 9 to 23 mice were used per group.

SMILES: CC(=O)[O-].[Na+] [acetate, Sodium acetate]
- Paneth cell granule maturation (percentage of Paneth cells with D0, D1, D2, D3 features) (Paneth cells): did not result in normal Paneth cell granule maturation
- cecal collagen deposition (fibrosis) [1]: increase in cecal collagen deposition
- ileal inflammation (ileum histoscore) ([2]; GF Tl1a-tg mice): developed ileal inflammation
- ileal inflammation (ileum histoscore) ([2]; GF WT mice): developed ileal inflammation
- IFN-γ secretion by MLN (IFN-γ; acetate treated GF Tl1a-tg mice): significantly elevated IFN-γ secretion
- IFN-γ secretion by MLN (IFN-γ; acetate treated GF WT mice): significantly elevated IFN-γ secretion
- ileitis (histoscore) ([3]; SPF Tl1a-tg mice, acetate in drinking water for 2 months starting at 2 months of age, vs age-matched water controls): led to ileitis
- ileal inflammation (histoscore) ([3]; SPF WT mice, acetate in drinking water for 4 months starting at 2 months of age, vs water controls): developed ileal inflammation
